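Five concentrations, 48 hours, 96-well plates. TGI denotes the concentration required for complete inhibition of growth.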
Key:
Assay in all cases: NCI anticancer screen, dose series, 48 h
[1] = system: UACC-62 melanoma
[2] = system: PC-3 prostate
[3] = system: RPMI-8226 leukemia
[4] = system: KM12 colon
[5] = system: MCF7 breast
[6] = system: SK-MEL-28 melanoma
[7] = system: IGROV1 ovarian
[8] = system: UACC-257 melanoma
[9] = system: HCC-2998 colon
[10] = system: UO-31 renal
[11] = system: M14 melanoma
[12] = system: HCT-15 colon
[13] = system: T-47D breast
[14] = system: HT29 colon
[15] = system: SK-OV-3 ovarian
[16] = system: MDA-MB-435
[17] = system: SNB-75 CNS
[18] = system: DU-145 prostate
[19] = system: U251 CNS
[20] = system: SN12C renal
[21] = system: BT-549 breast
[22] = system: MDA-MB-231 breast
[23] = system: OVCAR-4 ovarian
[24] = system: RXF 393 renal
[25] = system: SNB-19 CNS
[26] = system: SF-539 CNS
[27] = system: HCT-116 colon
[28] = system: LOX IMVI melanoma
[29] = system: SF-268 CNS
[30] = system: NCI-H522 lung
[31] = system: HOP-92 NSCLC
[32] = system: NCI-H460 lung
[33] = system: EKVX NSCLC
[34] = system: ACHN renal
[35] = system: SF-295 CNS
[36] = system: HS 578T breast
[37] = system: SW-620 colon
[38] = system: SR leukemia
[39] = system: NCI-H23 lung
[40] = system: COLO 205 colon
[41] = system: A498 renal
[42] = system: SK-MEL-5 melanoma
[43] = system: OVCAR-8 ovarian
[44] = system: NCI/ADR-RES ovarian
[45] = system: MOLT-4 leukemia
[46] = system: A549 NSCLC
[47] = system: 786-0 renal
[48] = system: SK-MEL-2 melanoma
[49] = system: CAKI-1 renal
[50] = system: HOP-62 NSCLC
[51] = system: MDA-N
[52] = system: NCI-H226 lung
[53] = system: K-562 leukemia
[54] = system: TK-10 renal
[55] = system: OVCAR-5 ovarian
[56] = system: OVCAR-3 ovarian
[57] = system: MALME-3M melanoma

## Cc1ccc(Nc2nnc(-c3ccc4c(c3)OCO4)o2)c(C)c1
[1]
  TGI: > 100 µM
[2]
  TGI: > 100 µM
[3]
  TGI: > 100 µM
[4]
  TGI: > 100 µM
[5]
  TGI: > 100 µM
[6]
  TGI: > 100 µM
[7]
  TGI: > 100 µM
[8]
  TGI: > 100 µM
[9]
  TGI: > 100 µM
[10]
  TGI: > 100 µM
[11]
  TGI: > 100 µM
[12]
  TGI: > 100 µM
[13]
  TGI: > 100 µM
[14]
  TGI: > 100 µM
[15]
  TGI: > 100 µM
[16]
  TGI: > 100 µM
[17]
  TGI: > 100 µM
[18]
  TGI: > 100 µM
[19]
  TGI: > 100 µM
[20]
  TGI: > 100 µM
[21]
  TGI: > 100 µM
[22]
  TGI: > 100 µM
[23]
  TGI: > 100 µM
[24]
  TGI: > 100 µM
[25]
  TGI: > 100 µM
[26]
  TGI: > 100 µM
[27]
  TGI: > 100 µM
[28]
  TGI: > 100 µM
[29]
  TGI: > 100 µM
[30]
  TGI: > 100 µM
[31]
  TGI: > 100 µM
[32]
  TGI: > 100 µM
[33]
  TGI: > 100 µM
[34]
  TGI: > 100 µM
[35]
  TGI: > 100 µM
[36]
  TGI: > 100 µM
[37]
  TGI: > 100 µM
[38]
  TGI: > 100 µM
[39]
  TGI: > 100 µM
[40]
  TGI: > 100 µM
[41]
  TGI: > 100 µM
[42]
  TGI: > 100 µM
[43]
  TGI: > 100 µM
[44]
  TGI: > 100 µM
[45]
  TGI: > 100 µM
[46]
  TGI: > 100 µM
[47]
  TGI: > 100 µM
[48]
  TGI: > 100 µM
[49]
  TGI: > 100 µM
[50]
  TGI: > 100 µM
[51]
  TGI: > 100 µM
[52]
  TGI: > 100 µM
[53]
  TGI: > 100 µM
[54]
  TGI: > 100 µM
[55]
  TGI: > 100 µM
[56]
  TGI: > 100 µM
[57]
  TGI: > 100 µM

## CCCCN(CCCC)C(=C(C(Cl)=C(Cl)Cl)[N+](=O)[O-])N(CCCC)CCCC
[1]
  TGI: > 100 µM
[2]
  TGI: > 100 µM
[3]
  TGI: 58.7 µM
[4]
  TGI: > 100 µM
[6]
  TGI: > 100 µM
[8]
  TGI: > 100 µM
[10]
  TGI: > 100 µM
[11]
  TGI: > 100 µM
[12]
  TGI: > 100 µM
[13]
  TGI: > 100 µM
[15]
  TGI: > 100 µM
[16]
  TGI: > 100 µM
[17]
  TGI: > 100 µM
[18]
  TGI: > 100 µM
[19]
  TGI: > 100 µM
[20]
  TGI: > 100 µM
[21]
  TGI: > 100 µM
[22]
  TGI: > 100 µM
[23]
  TGI: > 100 µM
[25]
  TGI: > 100 µM
[26]
  TGI: > 100 µM
[27]
  TGI: > 100 µM
[29]
  TGI: > 100 µM
[30]
  TGI: > 100 µM
[31]
  TGI: > 100 µM
[32]
  TGI: > 100 µM
[33]
  TGI: > 100 µM
[34]
  TGI: > 100 µM
[35]
  TGI: > 100 µM
[39]
  TGI: > 100 µM
[40]
  TGI: > 100 µM
[41]
  TGI: > 100 µM
[42]
  TGI: > 100 µM
[44]
  TGI: > 100 µM
[46]
  TGI: > 100 µM
[47]
  TGI: > 100 µM
[48]
  TGI: > 100 µM
[49]
  TGI: > 100 µM
[50]
  TGI: > 100 µM
[51]
  TGI: > 100 µM
[52]
  TGI: > 100 µM
[53]
  TGI: 4.69 µM
[54]
  TGI: > 100 µM
[55]
  TGI: > 100 µM
[56]
  TGI: > 100 µM
[57]
  TGI: > 100 µM

Source: PubChem BioAssay (NCI)
